In patent US4970162A, “Human-mouse hybrid cell line expressing monocyte-macrophage properties” (The United States of America as represented by the …, priority 1985, dated 1990):

Tests used:
macrophage chemotaxis = conditions: cited from earlier work
WBC264-9 cells = experiment: chemotaxis of WBC264-9 cells in 48-well microchemotaxis chamber; assay type: cell-based, human-mouse hybrid
Procedure: (§1) Chemotaxis by the cell lines was measured in a 48-well microchemotaxis chamber (Neuro Probe, Inc., Cabin John, Md.) with a 10 μm thick Nuclepore polycarbonate membrane coated with polyvinylpyrrolidone and containing 5 μm pores as described by Aksamit, et al., J. Immunol 126:2194 (1981). Upper wells contained 50,000 cells in MEM with 10% heat-inactivated fetal calf serum, and lower wells contained attractant in RPMI-1640 (GIBCO, Grand Island, N.Y.). […] EAMS was prepared as described by Aksamit et al., supra. Cells in the chemotaxis chamber were allowed to migrate for 4 hrs at 37° C. in an atmosphere of 5% CO2 and 95% air. The top cells were wiped off the filter, and cells on the bottom were stained in Diff-Quik (Harleco, Gibbstown, N.J.). Chemotaxis was quantified by measurement of the optical density of the migrated cells.

RAW264 cells = experiment: chemotaxis of RAW264 cells; assay type: cell-based; conditions: mouse RAW264 cells
Procedure: as §1

pertussis toxin
inhibition of macrophage chemotaxis (macrophage chemotaxis): potent inhibitor

CSCC[C@H](NC=O)C(=O)N[C@@H](CC(C)C)C(=O)N[C@@H](Cc1ccccc1)C(=O)O [FMLP, N-formylmethionine-leucine-phenylalanine]
chemotaxis to FMLP (WBC264-9 cells; 30 nM FMLP, cell line 9 (WBC264-9), for 20 passages, FIG. 1): high level of chemotaxis | concentration of optimal chemotactic response (WBC264-9 cells; WBC264-9 cells, 4 hrs at 37° C., FIG. 2): approximately 3×10^-8 M | chemotaxis to FMLP (RAW264 cells): do not exhibit chemotaxis
